Test [1] has as its system A375 (melanoma) cells. Put plainly: Proliferation Assay (CellTiter-Glo). Type of test: cell-based. The settings on record: 3 days incubation, CellTiter-Glo luminescence. In short, it runs like this: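 A375 cells in RPMI-1640 with 10% FBS, plated overnight, then exposed to 10-point 3-fold serial compound dilutions for 3 days at 37° C, 5% CO2. Viability read by CellTiter-Glo luminescence.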

Test [2] has as its target ERK2 (Homo sapiens (Human), UniProt P28482). Put plainly: Active ERK1 and ERK2 Kinase Assay (Mobility Shift Assay). Type of test: biochemical. The settings on record: activated ERK2, Mobility Shift Assay. In short, it runs like this:
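Mobility shift assay: compound preincubated with activated kinase 30 min at rt in 20 mM HEPES pH 7.5, 0.01% Triton X-100, 2 mM DTT. Reaction started with fluorescent substrate, ATP and metal, run 1 h at rt; activity taken as product ratio P/(P+S) after LabChip peptide separation.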

Usually IC50 stands for the midpoint of a concentration-inhibition curve.

Sequence of ERK2 (P28482 whole entry): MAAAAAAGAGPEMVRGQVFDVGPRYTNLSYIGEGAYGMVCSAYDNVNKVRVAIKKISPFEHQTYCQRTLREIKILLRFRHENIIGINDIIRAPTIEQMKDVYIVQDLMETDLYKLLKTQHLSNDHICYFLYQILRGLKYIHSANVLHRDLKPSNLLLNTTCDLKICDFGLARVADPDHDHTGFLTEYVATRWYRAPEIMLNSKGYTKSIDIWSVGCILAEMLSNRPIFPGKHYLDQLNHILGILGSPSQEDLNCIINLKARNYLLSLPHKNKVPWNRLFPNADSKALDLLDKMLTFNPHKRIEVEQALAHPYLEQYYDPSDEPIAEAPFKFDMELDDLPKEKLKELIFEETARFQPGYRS

As for `Cn1cnc(-c2ccc(C3=CCN(C(=O)CN4CC[C@]5(CCN(c6ccc7[nH]nc(C89CC(C8)C9)c7c6)C5=O)C4)CC3)cc2)n1` [Example 72, (S)-2-(3-(Bicyclo[1.1.1]pentan-1-yl)-1H-indazol-5-yl)-7-(2-(4-(4-(1-methyl-1H-1,2,4-triazol-3-yl)phenyl)-5,6-dihydropyridin-1(2H)-yl)-2-oxoethyl)-2,7-diazaspiro[4.4]nonan-1-one], the half-inhibitory concentration (IC50) in test [1] (Homo sapiens, A-375, 72 h) was 500 to 1000 nM; in test [2], ≤ 50 nM.

Regarding `Cn1cnc(-c2ccc(C3=CCN(C(=O)CN4CC[C@]5(CCN(c6ccc7[nH]nc(C89CC(C#N)(C8)C9)c7c6)C5=O)C4)CC3)cc2)n1` [Example 73, (S)-3-(5-(7-(2-(4-(4-(1-Methyl-1H-1,2,4-triazol-3-yl)phenyl)-5,6-dihydropyridin-1(2H)-yl)-2-oxoethyl)-1-oxo-2,7-diazaspiro[4.4]nonan-2-yl)-1H-indazol-3-yl)bicyclo[1.1.1]pentane-1-carbonitrile], the IC50 in test [1] (Homo sapiens, A-375, 72 h) was 500 to 1000 nM; in test [2], ≤ 50 nM.

On to `COc1cnc(-c2n[nH]c3ccc(N4CC[C@]5(CCN(CC(=O)N6CCC(c7ccc(-c8ncn(C)n8)cc7)CC6)C5)C4=O)cc23)c(F)c1` [Example 74], for which the IC50 is 500 to 1000 nM in test [1] and ≤ 50 nM in test [2].

On to `CC(C)Sc1ccc(-c2n[nH]c3ccc(N4CC[C@]5(CCN(CC(=O)N6CC=C(c7ccc(-c8ncn(C)n8)cc7)CC6)C5)C4=O)nc23)cn1` [Example 76], for which the IC50 was ≤ 500 nM in test [1] and ≤ 50 nM in test [2].

For the compound `Cn1cnc(-c2ccc(C3=CCN(C(=O)CN4CC[C@]5(CCN(c6ccc7[nH]nc(-c8ccc(OC9CCC9)nc8)c7n6)C5=O)C4)CC3)cc2)n1` [Example 77], the IC50 is ≤ 500 nM in test [1] and ≤ 50 nM in test [2].

With `Cc1ccc(-c2n[nH]c3ccc(N4CC[C@]5(CCN(CC(=O)N6CCC(c7ccc(-c8ncn(C)n8)cc7)CC6)C5)C4=O)nc23)cn1` [Example 79], the figures for the IC50 in test [1] and in test [2] were ≤ 500 nM and ≤ 50 nM, respectively.

As to `Cc1ccc(-c2n[nH]c3ccc(N4CC[C@]5(CCN(CC(=O)N6CCC(c7ncc(-c8ncn(C)n8)s7)CC6)C5)C4=O)nc23)cn1` [Example 80], the IC50 was ≤ 500 nM in test [1] (Homo sapiens, A-375, 72 h) and ≤ 50 nM in test [2].

`CCOc1ccc(-c2n[nH]c3ccc(N4CC[C@]5(CCN(CC(=O)N6CC=C(c7ccc(-c8ncn(C)n8)cc7)CC6)C5)C4=O)nc23)cn1` [Example 81]: the results for the half-inhibitory concentration (IC50) in test [1] and in test [2] were ≤ 500 nM and ≤ 50 nM, respectively.

With `CC(C)Oc1ccc(-c2n[nH]c3ccc(N4CC[C@]5(CCN(CC(=O)N6CCN(c7ccc(-c8ncn(C)n8)cc7)CC6)C5)C4=O)nc23)cn1` [Example 82], the IC50 in test [1] was ≤ 500 nM; in test [2] it was ≤ 50 nM.

With `CC(C)Oc1ccc(-c2n[nH]c3ccc(N4CC[C@]5(CCN(CC(=O)N6CCN(c7ccc(-c8ncn(C)n8)cn7)CC6)C5)C4=O)nc23)cn1` [Example 84], the IC50 in test [1] was ≤ 500 nM; in test [2], ≤ 50 nM.

In the case of `CC(C)Oc1ccc(-c2n[nH]c3ccc(N4CC[C@]5(CCN(CC(=O)N6CC=C(c7ccc(-c8ncn(CCO)n8)cc7)CC6)C5)C4=O)nc23)cn1` [Example 89], the IC50 in test [1] is ≤ 500 nM; in test [2], ≤ 50 nM.

For the compound `CC(C)c1nc2cc(-c3n[nH]c4ccc(N5CC[C@]6(CCN(CC(=O)N7CC=C(c8ccc(-c9ncn(C)n9)cc8)CC7)C6)C5=O)nc34)ccc2o1` [Example 91], the 50% inhibitory concentration (IC50) was 500 to 1000 nM in test [1] and ≤ 50 nM in test [2].

`COc1ccc(-c2n[nH]c3ccc(N4CC[C@]5(CCN(CC(=O)N6CC=C(c7ccc(-c8ncn(C)n8)cc7)CC6)C5)C4=O)nc23)cc1OC` [Example 92]: the IC50 was ≤ 500 nM in test [1] and ≤ 50 nM in test [2].

As for `COc1ccc(-c2n[nH]c3ccc(N4CC[C@]5(CCN(CC(=O)N6CC=C(c7ccc(-c8ncn(C)n8)cc7)CC6)C5)C4=O)nc23)nc1OC` [Example 93], the IC50 in test [1] is ≤ 500 nM; in test [2], ≤ 50 nM.

The values above are taken from US10934304B2, “Spirocyclic compounds” (Recurium IP Holdings, LLC, priority 2016, dated 2021).
